# How the values were obtained:
# [1] = test system: Non-Small Cell Lung Cancer Tumor Spheroids (co-cultured cell spheroids, A549 / HFL-1); assay: Morphology and area of tumor spheroids after drug administration on the chip (bright-field, quantified); type: cell-based, human
# Method: In some embodiments, the A549 cell line of the present disclosure is purchased from ATCC, and is commonly used for developing lung cancer drugs and drug delivery experiments. The A549 cells are cultured in F12K cell culture medium (10-025, Corning) supplemented with 10% fetal bovine serum (FBS) (35-076-EV, Corning). The cells are taken out from the liquid nitrogen tank and thawed in a […] water bath. The cell suspension in the cryovial is extracted and mixed with 1 mL of cell culture medium, followed by adding it to a T-75 cell culture flask containing 9 mL of cell culture medium for uniform mixing and culture. When cell confluence reaches 80%, cell passaging is carried out. Cells are first rinsed with DPBS and then detached from the T-75 cell culture flask using trypsin. The detached A549 cells are transferred to a 15 mL centrifuge tube, and centrifuged at 1000 rpm for 5 minutes at 24° C. After centrifugation, the cells are concentrated at the bottom of the centrifuge tube, and the supernatant is aspirated. Subsequently, 500 μL of cell culture medium is added, mixed thoroughly, and the cells are resuspended. A 20 μL cell suspension is then withdrawn, and the cell count is determined using an automatic cell counter, which is used to estimate the total number of cells in the centrifuge tube. The estimated number of cells is then seeded back into the T-75 cell culture flask.
# In some embodiments, the HFL-1 cell line of the present disclosure is purchased from BCRC, and is commonly used for co-culture and cytotoxicity studies. The cells are cultured in F12K cell culture medium (10-025, Corning) supplemented with 10% fetal bovine serum (FBS) (35-076-EV, Corning). The cells are removed from the liquid nitrogen tank and thawed in a 37° C. water bath. […] A 20 μL cell suspension is then withdrawn, and the cell count is determined using an automatic cell counter to estimate the total number of cells in the centrifuge tube. […]
# [2] = test system: cell spheroids (A549); assay: Effect of TGF-β on spreading and metastasis of cell spheroids cultured on the hydrogel; type: cell-based, human
# Method: In some embodiments, the present disclosure uses Ultra-Low Attachment (ULA) 96-well plates (7007, Corning) to conduct in vitro 3D cell spheroid cultures. The ULA 96-well plates feature an extremely low attachment surface that minimizes cell adhesion and protein absorption, facilitating the formation of cell spheroids. In each well of the ULA 96-well plate, 1000 to 8000 cells (with each well containing 200 μL of cell culture medium) are added, and the morphological changes of the cells are observed. After four days of cell seeding, compact cell spheroids are formed.
# In some embodiments, before seeding cell spheroids, the chip is irradiated with ultraviolet (UV) light for 30 minutes and washed with filtered 75% alcohol, 95% alcohol, and deionized water, respectively. […]
# In some embodiments, Image-J software is used to perform quantitative analysis of the cell spheroid spreading area. […] The spreading area of cell spheroids is then quantitatively analyzed.
# After culturing on the hydrogel for 48 hours, the development of the cell spheroids is observed using a fluorescence microscope. […] The original cell spheroids display red fluorescence indicating the expression of vimentin. […] “Top view” and “side view” refer to the respective perspectives, and the green fluorescence labels F-actin.
Molecule,"shape of cell spheroids after drug treatment ([1]; Dox 0, 40, 90 and 320 μM, 48 hours, on chip, FIG. 10A/10B)","area of tumor spheroids (quantitative analysis) ([1]; Dox 0, 40, 90 and 320 μM, FIG. 10C/10D)","therapeutic effect on static tumor spheroids (summary) ([1]; static tumor spheroids, single drug)","outward expansion and migration of cells in the cell spheroids (spreading area) ([2]; 20 ng/ml TGF-β, 48 hours on hydrogel, versus untreated, FIG. 3B/3C)","structure of cell spheroids ([2]; prolonged TGF-β treatment, FIG. 3D)"
COc1cccc2c1C(=O)c1c(O)c3c(c(O)c1C2=O)C[C@@](O)(C(=O)CO)C[C@@H]3O[C@H]1C[C@H](N)[C@H](O)[C@H](C)O1 [Dox],maintain their original shape,no significant decrease,no therapeutic effect,–,–
transforming growth factor-beta [TGF-β],–,–,–,increased outward expansion and migration range,disaggregate and expand outward

# From patent publication US20250368932A1, “SYSTEM FOR MIMICKING CELLULAR MICROENVIRONMENT AND METHOD FOR EVALUATING CELL DEVELOPMENT OR DRUG THERAPY EFFECTIVENESS USING THE SAME” (Anivance AI Corporation, priority 2024, published 2025)
